Results published in the NIST ThermoML archive (doi:10.1021/je5009334).
± gives the expanded uncertainty stated by the source.

Test: xn = mol fraction of the nth substance listed
Details: 101 kPa, Liquid; for speed of sound: Sing-around technique in a fixed-path interferometer; for mass density: Vibrating tube method

CCC(O)CO (stereo not given) [1,2-butanediol] + CCC(C)O
speed of sound (298.15 K, x1 = 0.1): 1231 ± 1.2 m/s | speed of sound (298.15 K, x1 = 0.2): 1250.6 ± 1.2 m/s | speed of sound (298.15 K, x1 = 0.3): 1270.9 ± 1.2 m/s | speed of sound (298.15 K, x1 = 0.4): 1292.2 ± 1.2 m/s | speed of sound (298.15 K, x1 = 0.5): 1315.5 ± 1.2 m/s | speed of sound (298.15 K, x1 = 0.6): 1340.2 ± 1.2 m/s | speed of sound (298.15 K, x1 = 0.7): 1365.7 ± 1.3 m/s | speed of sound (298.15 K, x1 = 0.8): 1393.3 ± 1.3 m/s | speed of sound (298.15 K, x1 = 0.9): 1423.1 ± 1.3 m/s | speed of sound (298.15 K, x1 = 1): 1452.6 ± 1.3 m/s | mass density (298.15 K, x1 = 0.1): 821.98 ± 0.24 kg/m3 | mass density (298.15 K, x1 = 0.2): 841.211 ± 0.24 kg/m3 | mass density (298.15 K, x1 = 0.3): 860.512 ± 0.24 kg/m3 | mass density (298.15 K, x1 = 0.4): 879.912 ± 0.25 kg/m3 | mass density (298.15 K, x1 = 0.5): 899.493 ± 0.25 kg/m3 | mass density (298.15 K, x1 = 0.6): 919.721 ± 0.24 kg/m3 | mass density (298.15 K, x1 = 0.7): 939.207 ± 0.24 kg/m3 | mass density (298.15 K, x1 = 0.8): 959.168 ± 0.23 kg/m3 | mass density (298.15 K, x1 = 0.9): 978.763 ± 0.23 kg/m3 | mass density (298.15 K, x1 = 1): 998.509 ± 0.23 kg/m3 | speed of sound (303.15 K, x1 = 0.1): 1213.1 ± 1.2 m/s | speed of sound (303.15 K, x1 = 0.2): 1233.5 ± 1.2 m/s | speed of sound (303.15 K, x1 = 0.3): 1253.8 ± 1.2 m/s | speed of sound (303.15 K, x1 = 0.4): 1275.5 ± 1.2 m/s | speed of sound (303.15 K, x1 = 0.5): 1299.1 ± 1.2 m/s | speed of sound (303.15 K, x1 = 0.6): 1324.6 ± 1.2 m/s | speed of sound (303.15 K, x1 = 0.7): 1350 ± 1.2 m/s | speed of sound (303.15 K, x1 = 0.8): 1378.1 ± 1.2 m/s | speed of sound (303.15 K, x1 = 0.9): 1408.3 ± 1.3 m/s | speed of sound (303.15 K, x1 = 1): 1438.2 ± 1.3 m/s | mass density (303.15 K, x1 = 0.1): 817.802 ± 0.24 kg/m3 | mass density (303.15 K, x1 = 0.2): 837.068 ± 0.24 kg/m3 | mass density (303.15 K, x1 = 0.3): 856.416 ± 0.24 kg/m3 | mass density (303.15 K, x1 = 0.4): 875.848 ± 0.25 kg/m3 | mass density (303.15 K, x1 = 0.5): 895.477 ± 0.25 kg/m3 | mass density (303.15 K, x1 = 0.6): 915.764 ± 0.25 kg/m3 | mass density (303.15 K, x1 = 0.7): 935.294 ± 0.24 kg/m3 | mass density (303.15 K, x1 = 0.8): 955.308 ± 0.23 kg/m3 | mass density (303.15 K, x1 = 0.9): 974.958 ± 0.23 kg/m3 | mass density (303.15 K, x1 = 1): 994.759 ± 0.23 kg/m3 | speed of sound (308.15 K, x1 = 0.1): 1195.3 ± 1.2 m/s | speed of sound (308.15 K, x1 = 0.2): 1216 ± 1.2 m/s | speed of sound (308.15 K, x1 = 0.3): 1236.8 ± 1.2 m/s | speed of sound (308.15 K, x1 = 0.4): 1258.8 ± 1.2 m/s | speed of sound (308.15 K, x1 = 0.5): 1282.9 ± 1.2 m/s | speed of sound (308.15 K, x1 = 0.6): 1308.7 ± 1.2 m/s | speed of sound (308.15 K, x1 = 0.7): 1334.5 ± 1.2 m/s | speed of sound (308.15 K, x1 = 0.8): 1362.8 ± 1.2 m/s | speed of sound (308.15 K, x1 = 0.9): 1393.4 ± 1.2 m/s | speed of sound (308.15 K, x1 = 1): 1423.6 ± 1.3 m/s | mass density (308.15 K, x1 = 0.1): 813.551 ± 0.24 kg/m3 | mass density (308.15 K, x1 = 0.2): 832.862 ± 0.24 kg/m3 | mass density (308.15 K, x1 = 0.3): 852.256 ± 0.24 kg/m3 | mass density (308.15 K, x1 = 0.4): 871.737 ± 0.25 kg/m3 | mass density (308.15 K, x1 = 0.5): 891.419 ± 0.25 kg/m3 | mass density (308.15 K, x1 = 0.6): 911.761 ± 0.25 kg/m3 | mass density (308.15 K, x1 = 0.7): 931.345 ± 0.24 kg/m3 | mass density (308.15 K, x1 = 0.8): 951.414 ± 0.23 kg/m3 | mass density (308.15 K, x1 = 0.9): 971.12 ± 0.23 kg/m3 | mass density (308.15 K, x1 = 1): 990.971 ± 0.23 kg/m3 | speed of sound (313.15 K, x1 = 0.1): 1177.3 ± 1.2 m/s | speed of sound (313.15 K, x1 = 0.2): 1198.2 ± 1.2 m/s | speed of sound (313.15 K, x1 = 0.3): 1219.7 ± 1.2 m/s | speed of sound (313.15 K, x1 = 0.4): 1242.2 ± 1.2 m/s | speed of sound (313.15 K, x1 = 0.5): 1266.7 ± 1.2 m/s | speed of sound (313.15 K, x1 = 0.6): 1292.9 ± 1.2 m/s | speed of sound (313.15 K, x1 = 0.7): 1319 ± 1.2 m/s | speed of sound (313.15 K, x1 = 0.8): 1347.7 ± 1.2 m/s | speed of sound (313.15 K, x1 = 0.9): 1378.5 ± 1.2 m/s | speed of sound (313.15 K, x1 = 1): 1409.1 ± 1.3 m/s | mass density (313.15 K, x1 = 0.1): 809.205 ± 0.24 kg/m3 | mass density (313.15 K, x1 = 0.2): 828.579 ± 0.24 kg/m3 | mass density (313.15 K, x1 = 0.3): 848.033 ± 0.24 kg/m3 | mass density (313.15 K, x1 = 0.4): 867.576 ± 0.25 kg/m3 | mass density (313.15 K, x1 = 0.5): 887.316 ± 0.25 kg/m3 | mass density (313.15 K, x1 = 0.6): 907.718 ± 0.25 kg/m3 | mass density (313.15 K, x1 = 0.7): 927.356 ± 0.24 kg/m3 | mass density (313.15 K, x1 = 0.8): 947.483 ± 0.23 kg/m3 | mass density (313.15 K, x1 = 0.9): 967.241 ± 0.23 kg/m3 | mass density (313.15 K, x1 = 1): 987.152 ± 0.23 kg/m3 | speed of sound (318.15 K, x1 = 0.1): 1159.3 ± 1.2 m/s | speed of sound (318.15 K, x1 = 0.2): 1180.7 ± 1.2 m/s | speed of sound (318.15 K, x1 = 0.3): 1202.6 ± 1.2 m/s | speed of sound (318.15 K, x1 = 0.4): 1225.5 ± 1.2 m/s | speed of sound (318.15 K, x1 = 0.5): 1250.5 ± 1.2 m/s | speed of sound (318.15 K, x1 = 0.6): 1277 ± 1.2 m/s | speed of sound (318.15 K, x1 = 0.7): 1303.5 ± 1.2 m/s | speed of sound (318.15 K, x1 = 0.8): 1332.5 ± 1.2 m/s | speed of sound (318.15 K, x1 = 0.9): 1363.6 ± 1.2 m/s | speed of sound (318.15 K, x1 = 1): 1394.5 ± 1.2 m/s | mass density (318.15 K, x1 = 0.1): 804.796 ± 0.24 kg/m3 | mass density (318.15 K, x1 = 0.2): 824.244 ± 0.24 kg/m3 | mass density (318.15 K, x1 = 0.3): 843.762 ± 0.24 kg/m3 | mass density (318.15 K, x1 = 0.4): 863.365 ± 0.25 kg/m3 | mass density (318.15 K, x1 = 0.5): 883.169 ± 0.26 kg/m3 | mass density (318.15 K, x1 = 0.6): 903.63 ± 0.25 kg/m3 | mass density (318.15 K, x1 = 0.7): 923.329 ± 0.24 kg/m3 | mass density (318.15 K, x1 = 0.8): 943.516 ± 0.23 kg/m3 | mass density (318.15 K, x1 = 0.9): 963.332 ± 0.23 kg/m3 | mass density (318.15 K, x1 = 1): 983.297 ± 0.23 kg/m3 | speed of sound (323.15 K, x1 = 0.1): 1141.5 ± 1.2 m/s | speed of sound (323.15 K, x1 = 0.2): 1163.1 ± 1.2 m/s | speed of sound (323.15 K, x1 = 0.3): 1185.5 ± 1.2 m/s | speed of sound (323.15 K, x1 = 0.4): 1208.9 ± 1.2 m/s | speed of sound (323.15 K, x1 = 0.5): 1234.3 ± 1.2 m/s | speed of sound (323.15 K, x1 = 0.6): 1260.8 ± 1.2 m/s | speed of sound (323.15 K, x1 = 0.7): 1288.4 ± 1.2 m/s | speed of sound (323.15 K, x1 = 0.8): 1317.6 ± 1.2 m/s | speed of sound (323.15 K, x1 = 0.9): 1348.7 ± 1.2 m/s | speed of sound (323.15 K, x1 = 1): 1379.9 ± 1.2 m/s | mass density (323.15 K, x1 = 0.1): 800.305 ± 0.24 kg/m3 | mass density (323.15 K, x1 = 0.2): 819.834 ± 0.24 kg/m3 | mass density (323.15 K, x1 = 0.3): 839.427 ± 0.24 kg/m3 | mass density (323.15 K, x1 = 0.4): 859.1 ± 0.25 kg/m3 | mass density (323.15 K, x1 = 0.5): 878.969 ± 0.26 kg/m3 | mass density (323.15 K, x1 = 0.6): 899.488 ± 0.25 kg/m3 | mass density (323.15 K, x1 = 0.7): 919.266 ± 0.24 kg/m3 | mass density (323.15 K, x1 = 0.8): 939.516 ± 0.24 kg/m3 | mass density (323.15 K, x1 = 0.9): 959.384 ± 0.23 kg/m3 | mass density (323.15 K, x1 = 1): 979.406 ± 0.23 kg/m3
